Source: PubChem BioAssay (NCI)
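Protocol summary: plate cells (96-well), add compound at 5 concentrations, incubate 48 h, interpolate endpoints linearly. GI50 marks 50% less growth. TGI is the concentration that stops growth completely.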

Legend:
Experiment in all cases: NCI tumour cell line growth inhibition, 48 h
MCF7 breast = system: MCF7 breast
BT-549 breast = system: BT-549 breast
T-47D breast = system: T-47D breast
MDA-N = system: MDA-N
DMS 273 small cell lung = system: DMS 273 small cell lung
LXFL 529 NSCLC = system: LXFL 529 NSCLC
XF 498 CNS = system: XF 498 CNS
DLD-1 colon = system: DLD-1 colon

Structure (SMILES) | TGI (MCF7 breast) [µM] | TGI (BT-549 breast) [µM] | TGI (T-47D breast) [µM] | GI50 (MCF7 breast) [µM] | GI50 (BT-549 breast) [µM] | GI50 (T-47D breast) [µM] | further results
C/C(=C\COc1ccc2ccc(=O)oc2c1)CCC(=O)C(C)(C)O | 40.6 | 74.9 | > 100 |  |  |  | TGI (MDA-N): > 100 µM
Cc1cncc2cccc(S(=O)(=O)N3CCCNC[C@@H]3C)c12 | > 100 | 35.9 | > 100 | 11.5 | 4.04 | > 80.3 | 
O=C(Nc1ccc(I)cc1F)c1cc(F)ccc1O | > 25.3 | 1.05 | 3 | 1.48 | 0.301 | 0.313 | 
NC(=S)c1cn(C2OC(CO)C(O)C2O)c2ncnc(N)c12 (stereo unspecified) | 0.303 | 1.65 | 0.0929 | 0.0673 | 0.149 | 0.0195 | 
O=C(CN1CCN(c2cc3c(cc2F)c(=O)c(C(=O)O)cn3C2CC2)CC1)Nc1ccc(C(=O)/C=C/c2ccccc2)cc1 | > 100 | > 100 | > 100 | 3.52 | 3.55 | 6.66 | 
COC(=O)[C@@H](C)C[C@H](Cc1ccccc1)NC(=O)c1csc([C@@H](C[C@H](C(C)C)N(C)C(=O)[C@@H](NC(=O)CN(C)C)C2CC2)OC(C)=O)n1 | > 16.5 | 0.857 | > 16.5 | 0.00258 | 0.0127 | > 16.5 | 
COc1cc2ccc(C(=O)O)cc2cc1OC |  |  |  |  |  |  | TGI (DMS 273 small cell lung): > 100 µM; TGI (LXFL 529 NSCLC): > 100 µM; TGI (XF 498 CNS): > 100 µM
Cn1cc(C2=C(c3cn(C)c4cc(Cl)ccc34)C(=O)NC2=O)c2ccccc21 | > 25 | > 25 |  | 0.0972 | 0.623 |  | 
CN(C)CC1CCCCCCCCCCC1=O (stereo unspecified) | > 100 | > 100 | > 100 | > 100 | > 100 | > 100 | GI50 (MDA-N): > 100 µM; TGI (MDA-N): > 100 µM
Cc1cccc(Cc2cnc(NC(=O)/C=C/c3ccco3)s2)c1 | > 100 | > 100 | > 100 | 0.0331 | 0.174 | 0.033 | 
N#CCCCCCn1c2ccccc2c2c3c(c4c5ccccc5[nH]c4c21)C(=O)N(O)C3=O |  | 9.53 | 8.65 |  | 1.84 | 0.455 | 
N#CSc1cc(-c2nc3ccccc3o2)ccc1N | > 84.8 | > 60.9 | 90 | 14.5 | 23.8 | 7.5 | 
Cn1cc(C2=C(c3cccc(Cl)c3)C(=O)NC2=O)c2ccccc21 | > 25 | > 25 | > 25 | > 25 | > 25 | 20 | 
C/C(=N/OCCC(=O)O)C1CC1 |  |  |  |  |  |  | TGI (DMS 273 small cell lung): > 100 µM; TGI (LXFL 529 NSCLC): > 100 µM; TGI (XF 498 CNS): > 100 µM; TGI (DLD-1 colon): > 100 µM
CCN1CCN(c2nc(NNC(=O)c3cccc(OC)c3)nc(N3CCN(C(c4ccccc4)c4ccccc4)CC3)n2)CC1 |  | 9.81 | 7.18 |  | 2.65 | 2.27 | 
S=C1NC2=C(CCOc3c2ccc2ccccc32)C(c2ccc(Cl)cc2)N1 (stereo unspecified) | > 100 | 91.9 | 17.2 | 16.2 | 25.8 | 3.36 | 

Structure (SMILES) | TGI (MCF7 breast) [µM] | TGI (BT-549 breast) [µM] | TGI (T-47D breast) [µM] | GI50 (MCF7 breast) [µM] | GI50 (BT-549 breast) [µM] | GI50 (T-47D breast) [µM] | further results
C[C@@H]1CC[C@H]2C(CN(C)CC3=C(C(F)(F)F)O[C@@H]4O[C@@]5(C)CC[C@H]6[C@H](C)CC[C@@H]3[C@@]46OO5)=C(C(F)(F)F)O[C@@H]3O[C@@]4(C)CC[C@@H]1[C@]32OO4 | > 100 | 54.4 | 39.7 | 1.56 | 14.3 | 0.236 | 
Cc1c(-c2ccnc(N)n2)c2c(n1-c1ccccc1)C(=O)c1ccccc1C2=O |  | 29.9 | > 100 |  | 6.3 | 51.4 | 
O=C(Nc1ccc(Oc2cccc(Cl)c2)c(Cl)c1)c1cccnc1 | > 50 | 44.3 | > 50 | 0.597 | 5.42 | 1.91 | 
COc1cc(C2CC(c3cc(Cl)c(C)cc3O)=NN2c2ccc(S(N)(=O)=O)cc2)cc(OC)c1OC (stereo unspecified) | 10.3 | 7.01 | 7.06 | 2.77 | 2.6 | 2.28 | 
CC(C)=CCCC1(C)C=Cc2c(ccc3c2[nH]c2cc(O)c(C)cc23)O1 (stereo unspecified) |  |  |  |  |  |  | GI50 (DMS 273 small cell lung): 4.96 µM; TGI (DMS 273 small cell lung): 9.81 µM; GI50 (LXFL 529 NSCLC): 5.15 µM; TGI (LXFL 529 NSCLC): 10.9 µM; TGI (XF 498 CNS): > 2.5 µM; GI50 (DLD-1 colon): 8.89 µM; TGI (DLD-1 colon): 22.9 µM
CCCN(CCC)c1c([N+](=O)[O-])cc(C(N)=O)cc1[N+](=O)[O-] |  |  |  |  |  |  | TGI (DMS 273 small cell lung): > 100 µM; TGI (LXFL 529 NSCLC): > 100 µM; TGI (XF 498 CNS): > 100 µM; TGI (DLD-1 colon): > 100 µM
c1ccc2c(Nc3ccc4c(c3)OCO4)c3ccoc3nc2c1 | > 100 |  | > 100 | 12.6 |  | 29.3 | 
O=C1/C(=C/c2ccccc2)CN(C(=O)Oc2ccccc2)C/C1=C\c1ccccc1 |  |  |  |  |  |  | TGI (DMS 273 small cell lung): > 100 µM; TGI (LXFL 529 NSCLC): > 100 µM
CCc1cc2c(c3[nH]ccc13)[C@@H](C)C[C@H]2C |  |  |  |  |  |  | TGI (DMS 273 small cell lung): 32.7 µM; TGI (LXFL 529 NSCLC): 32.8 µM; TGI (DLD-1 colon): 36.3 µM
O=C1c2ccccc2-c2c1c1ccccc1c(=O)n2CCCNCCO | 5.03 | 5.9 | 7.58 | 0.102 | 1.65 | 1.05 | 
CN(C)/C=C/C(=O)c1cccc(C(=O)/C=C/N(C)C)n1 |  |  |  |  |  |  | TGI (DMS 273 small cell lung): > 100 µM; TGI (LXFL 529 NSCLC): > 100 µM; TGI (XF 498 CNS): > 100 µM; TGI (DLD-1 colon): > 100 µM
O=C(O)CSc1nnc(COc2ccccc2)n1-c1ccccc1 |  |  |  |  |  |  | TGI (DMS 273 small cell lung): > 100 µM; TGI (LXFL 529 NSCLC): > 100 µM; TGI (DLD-1 colon): > 100 µM
CCN(CC)CCn1nc2c3c(cccc3c1=O)-c1ccccc1-2 | 3.51 | 15.1 | 27 | 0.715 | 6.16 | 2.06 | 
CO[C@H]1/C=C/C=C/C=C/C[C@H](OC(=O)[C@@H](C)NC(=O)C2CCCCC2)[C@H](C)[C@@H](O)/C(C)=C\CCC2=CC(=O)C=C(NC(=O)C1)C2=O | 3.54 | 1.38 | 1.06 | 0.13 | 0.172 | 0.105 | 
O=[P+](O)c1cc2c3ccccc3ccc2c2ccccc12 |  |  |  |  |  |  | TGI (DMS 273 small cell lung): > 100 µM; TGI (LXFL 529 NSCLC): > 100 µM; TGI (XF 498 CNS): > 100 µM; TGI (DLD-1 colon): > 100 µM
